Data from patent US9730444B2, “Herbicidal compositions comprising isoxaben and aminopyralid” (Dow AgroSciences LLC, priority 2013, dated 2017).

Assays:
[1] = test system: STEME = Stellaria media (L.) Vill. (common chickweed); assay: Small plot field trial in winter wheat, foliar-applied, visual % control of STEME; assay type: in vivo; settings: Trial 1, observed mean, 200 L/ha water, winter wheat crop stage 12-13, rates: isoxaben 40 g ai/ha, aminopyralid 5 g ae/ha, flufenacet 200 g ai/ha, diflufenican 100 g ai/ha
Description: (§1) Results in Table 1 are for foliar-applied compositions in small plot research experiments to evaluate the efficacy of the compositions in winter wheat. Application water volume was 200 liters per hectare (L/ha). Crop stage at time of application was 12-13. The values reported are means. […] Colby's equation was used to determine the herbicidal effects expected from the mixtures (Colby, S. R. Calculation of the synergistic and antagonistic response of herbicide combinations. Weeds 1967, 15, 20-22.).
(§2) More specifically, the following equation is used to calculate the expected activity of mixtures containing two herbicical active ingredients: Expected=A+B−(A×B/100) • A=observed efficacy of a first active ingredient at the same concentration as used in the mixture; • B=observed efficacy of the second active ingredient (or product, which may contain a combination of active ingredients) at the same concentration as used in the mixture. For mixtures containing three herbicidal active ingredients, the following equation was used to calculate the expected activity:
(§3) [formula] • A=observed efficacy of a first active ingredient at the same concentration as used in the mixture; • B=observed efficacy of a second active ingredient B at the same concentration as used in the mixture; • C=observed efficacy of a third active ingredient C at the same concentration as used in the mixture. The following abbreviations are used in Table 1: • GERDI=Geranium dissectum (cutleaf geranium) • STEME=Stellaria media (L.) Vill. (common chickweed) • g ai/ha=grams active ingredient per hectare • g ae/ha=grams acid equivalent per hectare • Ob=observed value of percent (%) control rated visually • Ex=expected value of percent (%) control as calculated by Colby's equation

[2] = test system: GERDI = Geranium dissectum (cutleaf geranium); assay: Small plot field trial in winter wheat, foliar-applied, visual % control of GERDI; assay type: in vivo; settings: Trial 1, observed mean, 200 L/ha water, winter wheat crop stage 12-13, rates: isoxaben 40 g ai/ha, aminopyralid 5 g ae/ha, flufenacet 200 g ai/ha, diflufenican 100 g ai/ha
Description: as §1, §2, §3

## Nc1cc(Cl)nc(C(=O)O)c1Cl [aminopyralid, 4-amino-3,6-dichloropyridine-2-carboxylic acid]
[1]
  VISUAL % CONTROL OF STEME 28 DAT Ob: 0 e %
[2]
  VISUAL % CONTROL OF GERDI 28 DAT Ob: 0 d %

## CCC(C)(CC)c1cc(NC(=O)c2c(OC)cccc2OC)on1 [isoxaben, N-[3-(1-ethyl-1-methylpropyl)isoxazol-5-yl]-2,6-dimethoxybenzamide]
[1]
  VISUAL % CONTROL OF STEME 28 DAT Ob: 0 e %
[2]
  VISUAL % CONTROL OF GERDI 28 DAT Ob: 0 d %

## CC(C)N(C(=O)COc1nnc(C(F)(F)F)s1)c1ccc(F)cc1 [flufenacet, N-(4-fluorophenyl)-N-(1-methylethyl)-2-[[5-(trifluoromethyl)-1,3,4-thiadiazol-2-yl]oxy]acetamide]
[1]
  VISUAL % CONTROL OF STEME 28 DAT Ob: 0 e %
[2]
  VISUAL % CONTROL OF GERDI 28 DAT Ob: 0 d %
